Reference: ChEMBL document CHEMBL1201862, “PubChem BioAssay data set” (2004)
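Briefly, cells in 96-well plates were exposed to five compound concentrations for 48 h, and endpoints were estimated by linear interpolation. GI50 marks 50% less growth.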 Active and inactive are the calls of the source. No stated cut-off is given here; in the data, active = GI50 up to about 1.1 µM and inactive = higher.

What was measured:
Assay in all cases: DTP human tumour cell line panel, 48 h
[1] = test system: KM12
[2] = test system: CAKI-1
[3] = test system: OVCAR-8
[4] = test system: T47D
[5] = test system: OVCAR-3
[6] = test system: Hs-578T
[7] = test system: ACHN
[8] = test system: 786-0
[9] = test system: TK-10
[10] = test system: RPMI-8226
[11] = test system: MOLT-4
[12] = test system: OVCAR-4
[13] = test system: MDA-MB-231
[14] = test system: LOX IMVI
[15] = test system: MDA-N
[16] = test system: HCT-116
[17] = test system: DU-145
[18] = test system: BT-549
[19] = test system: SN12C
[20] = test system: SNB-75
[21] = test system: NCI/ADR-RES
[22] = test system: SF-295
[23] = test system: A549
[24] = test system: OVCAR-5
[25] = test system: K562
[26] = test system: M14
[27] = test system: NCI-H460
[28] = test system: UACC-62
[29] = test system: HL-60
[30] = test system: MDA-MB-435
[31] = test system: EKVX
[32] = test system: HOP-92
[33] = test system: UO-31
[34] = test system: NCI-H23
[35] = test system: SF-268
[36] = test system: Malme-3M
[37] = test system: A498
[38] = test system: IGROV-1
[39] = test system: SK-MEL-2
[40] = test system: SF-539
[41] = test system: U-251
[42] = test system: SK-OV-3
[43] = test system: HOP-62
[44] = test system: HCT-15
[45] = test system: SK-MEL-5
[46] = test system: MCF7
[47] = test system: NCI-H226
[48] = test system: COLO 205
[49] = test system: SK-MEL-28
[50] = test system: SW-620
[51] = test system: NCI-H522
[52] = test system: SNB-19
[53] = test system: RXF 393
[54] = test system: HT-29
[55] = test system: SR
[56] = test system: PC-3
[57] = test system: UACC-257
[58] = test system: HCC 2998
[59] = test system: CCRF-CEM

In the case of `O=C(CSC1=NCCN1)c1ccccc1`, the GI50 [1] was > 100 µM (inactive), the GI50 [2] was > 100 µM (inactive) and the GI50 [3] was > 100 µM (inactive). For the same molecule, the GI50 [4] was > 100 µM (inactive), the GI50 [5] was > 100 µM (inactive) and the GI50 [6] was > 100 µM (inactive). For the same molecule, the GI50 [7] was > 100 µM (inactive), the GI50 [8] was > 100 µM (inactive) and the GI50 [9] was > 100 µM (inactive). For the same molecule, the GI50 [10] was > 100 µM (inactive), the GI50 [11] was > 100 µM (inactive) and the GI50 [12] was > 100 µM (inactive). For the same molecule, the GI50 [13] was > 100 µM (inactive), the GI50 [14] was > 100 µM (inactive) and the GI50 [15] was > 100 µM (inactive). For the same molecule, the GI50 [16] was > 100 µM (inactive), the GI50 [17] was > 100 µM (inactive) and the GI50 [18] was > 100 µM (inactive). The GI50 [19] was > 100 µM (inactive), the GI50 [20] was > 100 µM (inactive) and the GI50 [21] was > 100 µM (inactive). For the same molecule, the GI50 [22] was > 100 µM (inactive), the GI50 [23] was > 100 µM (inactive) and the GI50 [24] was > 100 µM (inactive). For the same molecule, the GI50 [25] was > 100 µM (inactive), the GI50 [26] was > 100 µM (inactive) and the GI50 [27] was > 100 µM (inactive). For the same molecule, the GI50 [28] was > 100 µM (inactive), the GI50 [29] was < 0.01 µM (active) and the GI50 [30] was > 100 µM (inactive). The GI50 [31] was > 100 µM (inactive), the GI50 [32] was > 100 µM (inactive) and the GI50 [33] was > 100 µM (inactive). For the same molecule, the GI50 [34] was > 100 µM (inactive), the GI50 [35] was > 100 µM (inactive) and the GI50 [36] was > 100 µM (inactive). The GI50 [37] was > 100 µM (inactive), the GI50 [38] was > 100 µM (inactive) and the GI50 [39] was > 100 µM (inactive). The GI50 [40] was > 100 µM (inactive), the GI50 [41] was > 100 µM (inactive) and the GI50 [42] was > 100 µM (inactive). For the same molecule, the GI50 [43] was > 100 µM (inactive), the GI50 [44] was greater than 100 µM and the GI50 [45] was > 100 µM (inactive). The GI50 [46] was > 100 µM (inactive), the GI50 [47] was > 100 µM (inactive) and the GI50 [48] was > 100 µM (inactive). For the same molecule, the GI50 [49] was > 100 µM (inactive), the GI50 [50] was > 100 µM (inactive) and the GI50 [51] was > 100 µM (inactive). The GI50 [52] was > 100 µM (inactive), the GI50 [53] was > 100 µM (inactive) and the GI50 [54] was > 100 µM (inactive). The GI50 [55] was > 100 µM (inactive), the GI50 [56] was > 100 µM (inactive) and the GI50 [57] was > 100 µM (inactive).
In the case of `COC(=O)C1=C(C)N2[C@H](C(=O)O)CO[C@@]2(C)[C@H](C(=O)OC)[C@H]1c1cccc([N+](=O)[O-])c1`, the GI50 [1] was > 100 µM (inactive), the GI50 [2] was > 100 µM (inactive) and the GI50 [3] was > 100 µM (inactive). The GI50 [4] was > 100 µM (inactive), the GI50 [5] was > 100 µM (inactive) and the GI50 [6] was > 100 µM (inactive). The GI50 [7] was > 100 µM (inactive), the GI50 [8] was > 100 µM (inactive) and the GI50 [9] was > 100 µM (inactive). For the same molecule, the GI50 [10] was > 100 µM (inactive), the GI50 [11] was > 100 µM (inactive) and the GI50 [12] was > 100 µM (inactive). For the same molecule, the GI50 [13] was > 100 µM (inactive), the GI50 [15] was > 100 µM (inactive) and the GI50 [16] was > 100 µM (inactive). The GI50 [17] was > 100 µM (inactive), the GI50 [18] was > 100 µM (inactive) and the GI50 [19] was > 100 µM (inactive). The GI50 [20] was > 100 µM (inactive), the GI50 [21] was > 100 µM (inactive) and the GI50 [22] was > 100 µM (inactive). For the same molecule, the GI50 [23] was > 100 µM (inactive), the GI50 [24] was > 100 µM (inactive) and the GI50 [25] was > 100 µM (inactive). The GI50 [26] was > 100 µM (inactive), the GI50 [27] was > 100 µM (inactive) and the GI50 [28] was > 100 µM (inactive). For the same molecule, the GI50 [58] was > 100 µM (inactive), the GI50 [30] was > 100 µM (inactive) and the GI50 [31] was > 100 µM (inactive). For the same molecule, the GI50 [32] was > 100 µM (inactive), the GI50 [33] was > 100 µM (inactive) and the GI50 [34] was > 100 µM (inactive). The GI50 [35] was > 100 µM (inactive), the GI50 [36] was > 100 µM (inactive) and the GI50 [37] was > 100 µM (inactive). The GI50 [38] was > 100 µM (inactive), the GI50 [39] was > 100 µM (inactive) and the GI50 [40] was > 100 µM (inactive). For the same molecule, the GI50 [41] was > 100 µM (inactive), the GI50 [42] was > 100 µM (inactive) and the GI50 [43] was > 100 µM (inactive). The GI50 [44] was greater than 100 µM, the GI50 [59] was > 100 µM (inactive) and the GI50 [45] was > 100 µM (inactive). For the same molecule, the GI50 [46] was > 100 µM (inactive), the GI50 [47] was > 100 µM (inactive) and the GI50 [48] was > 100 µM (inactive). The GI50 [49] was > 100 µM (inactive), the GI50 [50] was > 100 µM (inactive) and the GI50 [51] was > 100 µM (inactive). The GI50 [52] was > 100 µM (inactive), the GI50 [53] was > 100 µM (inactive) and the GI50 [54] was > 100 µM (inactive). The GI50 [55] was > 100 µM (inactive), the GI50 [56] was > 100 µM (inactive) and the GI50 [57] was > 100 µM (inactive).
